Laboratory results taken from patent publication US10618918B2, “Substituted boronic acids as antimicrobials” (priority 2015, dated 2020).
Where two headings read alike, the source gives them in different places.

How the values were obtained:
KP1004 KPC-2 [1] = test: Biapenem potentiation (MPC@1), strain KP1004 KPC-2; assay type: cell-based; settings: minimum BLI concentration inhibiting growth with biapenem 1 μg/mL; tested up to 40 μg/mL
Description: (§1) Biapenem was present in the test medium at 1 μg/mL. […] Table 3 summarizes the BLI potency of biapenem potentiation (MPC@1) for two strains overexpressing class A (KPC) and class D (OXA-48) carbapenemases. Biapenem MIC for each strain is also shown.

KP1086 OXA-48 = test: Biapenem potentiation (MPC@1), strain KP1086 OXA-48; assay type: cell-based; settings: minimum BLI concentration inhibiting growth with biapenem 1 μg/mL; tested up to 40 μg/mL
Description: as §1

AB1053 OXA-72 = test: Meropenem potentiation (MPC@8), strain AB1053 OXA-72; assay type: cell-based, Acinetobacter baumannii; settings: minimum BLI concentration inhibiting growth with meropenem 8 μg/mL; tested up to 20 μg/mL
AB1054 OXA-23 = test: Meropenem potentiation (MPC@8), strain AB1054 OXA-23; assay type: cell-based, Acinetobacter baumannii; settings: minimum BLI concentration inhibiting growth with meropenem 8 μg/mL; tested up to 20 μg/mL
[2] = biological target: T1, purified class A, C and D enzymes (β-lactamases) (Acinetobacter baumannii, UniProt Q9L4P2); test: biochemical; assay type: biochemical; settings: purified OXA-23; nitrocefin (NCF) as reporter substrate
T1 construct: rows headed: Ki (OXA-23, NCF), uM; other: purified OXA-23; nitrocefin (NCF) as reporter substrate
T1 sequence (Q9L4P2 whole entry): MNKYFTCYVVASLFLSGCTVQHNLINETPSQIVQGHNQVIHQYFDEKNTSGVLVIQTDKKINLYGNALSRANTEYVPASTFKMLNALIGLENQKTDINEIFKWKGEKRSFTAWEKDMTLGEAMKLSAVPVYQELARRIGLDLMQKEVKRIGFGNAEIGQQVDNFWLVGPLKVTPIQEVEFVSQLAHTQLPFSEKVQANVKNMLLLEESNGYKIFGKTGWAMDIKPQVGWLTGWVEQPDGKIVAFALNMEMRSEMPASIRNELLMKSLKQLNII

[3] = biological target: purified class A, C and D enzymes (β-lactamases) (Enterobacter cloacae, UniProt P05364); test: biochemical; assay type: biochemical
purified class A, C and D enzymes (β-lactamases) (Enterobacter cloacae, UniProt P05364), sequence (P05364 21-381): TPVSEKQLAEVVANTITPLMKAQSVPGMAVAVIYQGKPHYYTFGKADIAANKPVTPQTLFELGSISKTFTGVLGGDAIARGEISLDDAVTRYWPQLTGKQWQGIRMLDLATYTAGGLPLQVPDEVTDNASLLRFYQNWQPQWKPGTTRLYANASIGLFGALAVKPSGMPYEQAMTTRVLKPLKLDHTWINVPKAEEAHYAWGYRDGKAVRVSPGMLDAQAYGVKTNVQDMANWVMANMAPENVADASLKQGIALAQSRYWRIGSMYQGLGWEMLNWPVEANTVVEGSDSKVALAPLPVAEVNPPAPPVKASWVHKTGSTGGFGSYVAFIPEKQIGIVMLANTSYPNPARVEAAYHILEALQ

[4] = biological target: purified class A, C and D enzymes (β-lactamases) (Escherichia coli, UniProt Q9L5C7); test: biochemical; assay type: biochemical; settings: purified CTX-M-14; nitrocefin (NCF) as reporter substrate
purified class A, C and D enzymes (β-lactamases) (Escherichia coli, UniProt Q9L5C7), sequence (Q9L5C7 entry or part of it): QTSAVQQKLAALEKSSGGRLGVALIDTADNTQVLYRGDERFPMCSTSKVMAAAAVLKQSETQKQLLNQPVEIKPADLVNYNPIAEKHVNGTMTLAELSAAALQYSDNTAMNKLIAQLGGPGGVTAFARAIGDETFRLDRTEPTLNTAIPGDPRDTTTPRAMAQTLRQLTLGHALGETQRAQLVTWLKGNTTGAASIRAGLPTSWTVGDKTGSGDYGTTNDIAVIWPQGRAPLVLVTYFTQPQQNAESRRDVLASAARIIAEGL

[5] = biological target: purified class A, C and D enzymes (β-lactamases) (Klebsiella pneumoniae, UniProt Q6XEC0); test: biochemical; assay type: biochemical; settings: purified OXA-48; nitrocefin (NCF) as reporter substrate
[6] = biological target: purified class A, C and D enzymes (β-lactamases) (Klebsiella pneumoniae, UniProt Q9F663); test: biochemical; assay type: biochemical; settings: purified KPC-2; nitrocefin (NCF) as reporter substrate
[7] = biological target: T2, purified class A, C and D enzymes (β-lactamases) (Pseudomonas aeruginosa, UniProt P24735); test: biochemical; assay type: biochemical
T2 construct: rows headed: Ki (Pa-AmpC, NCF), uM; other: purified Pa-AmpC; nitrocefin (NCF) as reporter substrate
T2 sequence (P24735 whole entry): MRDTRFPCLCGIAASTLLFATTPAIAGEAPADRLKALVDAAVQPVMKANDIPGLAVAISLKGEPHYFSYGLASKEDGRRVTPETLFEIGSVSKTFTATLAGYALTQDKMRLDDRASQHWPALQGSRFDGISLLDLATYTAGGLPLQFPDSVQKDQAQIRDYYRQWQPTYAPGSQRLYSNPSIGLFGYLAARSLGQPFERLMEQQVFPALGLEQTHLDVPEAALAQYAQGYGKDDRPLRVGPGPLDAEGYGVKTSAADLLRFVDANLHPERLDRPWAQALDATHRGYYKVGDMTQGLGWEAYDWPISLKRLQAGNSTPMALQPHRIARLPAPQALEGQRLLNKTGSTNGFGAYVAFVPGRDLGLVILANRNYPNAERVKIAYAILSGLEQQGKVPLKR

[8] = biological target: T3, purified class A, C and D enzymes (β-lactamases) (UniProt P0AD64, L31Q/G234S/E235K, species not given); test: biochemical; assay type: biochemical
T3 construct: Ki (SHV-12, NCF), uM; other: purified SHV-12; nitrocefin (NCF) as reporter substrate
T3 sequence (P0AD64 1-286 L31Q/G234S/E235K): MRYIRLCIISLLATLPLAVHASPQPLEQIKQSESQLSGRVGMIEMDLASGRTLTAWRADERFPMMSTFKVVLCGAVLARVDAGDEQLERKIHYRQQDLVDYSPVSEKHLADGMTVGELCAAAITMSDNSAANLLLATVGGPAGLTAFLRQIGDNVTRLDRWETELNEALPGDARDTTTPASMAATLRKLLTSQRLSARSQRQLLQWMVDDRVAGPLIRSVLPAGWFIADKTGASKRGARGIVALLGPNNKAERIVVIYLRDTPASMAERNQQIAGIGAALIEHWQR

ECL1002 = test: Aztreonam potentiation (MPC@4), strain ECL1002; settings: minimum BLI concentration inhibiting growth with aztreonam 4 μg/mL; tested up to 40 μg/mL
ec308 SHV-5 = test: Aztreonam potentiation (MPC@4), strain ec308 SHV-5; settings: minimum BLI concentration inhibiting growth with aztreonam 4 μg/mL; tested up to 40 μg/mL
ec302 TEM-10 = test: Aztreonam potentiation (MPC@4), strain ec302 TEM-10; settings: minimum BLI concentration inhibiting growth with aztreonam 4 μg/mL; tested up to 40 μg/mL
KP1004 KPC-2 [9] = test: Aztreonam potentiation (MPC@4), strain KP1004 KPC-2; settings: minimum BLI concentration inhibiting growth with aztreonam 4 μg/mL; tested up to 40 μg/mL
EC1010 CMY-6 = test: Aztreonam potentiation (MPC@4), strain EC1010 CMY-6; settings: minimum BLI concentration inhibiting growth with aztreonam 4 μg/mL; tested up to 40 μg/mL
KP1010 SHV-12 = test: Aztreonam potentiation (MPC@4), strain KP1010 SHV-12; settings: minimum BLI concentration inhibiting growth with aztreonam 4 μg/mL; tested up to 40 μg/mL
KP1009 CTX-M-15 = test: Aztreonam potentiation (MPC@4), strain KP1009 CTX-M-15; settings: minimum BLI concentration inhibiting growth with aztreonam 4 μg/mL; tested up to 40 μg/mL
KP1005 CTX-M-14 = test: Tigemonam potentiation (MPC@4), strain KP1005 CTX-M-14; settings: minimum BLI concentration inhibiting growth with tigemonam 4 μg/mL; tested up to 40 μg/mL
[10] = read-out: Ki (SHV-12, NCF); purified SHV-12; nitrocefin (NCF) as reporter substrate

SMILES	BPM MPC1 KP1004 KPC-2 (KP1004 KPC-2 [1])	BPM MPC1 OXA-48 KP1086 (KP1086 OXA-48)	MPM MPC8 AB1053 OXA-72 (AB1053 OXA-72)	MPM MPC8 AB1054 OXA-23 (AB1054 OXA-23)	Ki [2]	Ki (P99, NCF), uM [3]	Ki (CTX-M-14, NCF), uM [4]	Ki (OXA-48, NCF), uM [5]	Ki (KPC-2, NCF), uM [6]	Ki [7]	Ki [8, 10]	AZT MPC4 ECL1002 (ECL1002)	AZT MPC4 SHV-5 ec308 (ec308 SHV-5)	AZT MPC4 TEM-10 ec302 (ec302 TEM-10)	AZT MPC4 KPC-2 KP1004 (KP1004 KPC-2 [9])	AZT MPC4 CMY-6 EC1010 (EC1010 CMY-6)	AZT MPC4 SHV-12 KP1010 (KP1010 SHV-12)	AZT MPC4 CTX-M-15 KP1009 (KP1009 CTX-M-15)	TIG MPC4 CTX-M-14 KP1005 (KP1005 CTX-M-14)	further results
NCCn1cc(-c2ccc3c(c2C(=O)O)O[B-](O)(O)CC3)nn1 [Compound 17, Disodium; 8-[1-(2-aminoethyl)triazol-4-yl]-4,4-dihydroxy-5-oxa-4-boranuidabicyclo[4.4.0]deca-1(6),7,9-triene-7-carboxylate]	X (X = MPC@1 ≤ 5 μg/mL)	X (X = MPC@1 ≤ 5 μg/mL)	X (X = MPC@1 ≤ 5 μg/mL)	X (X = MPC@1 ≤ 5 μg/mL)	< 0.1 µM	Y (key: X = Ki ≤ 0.1 μM; Y = 0.1 μM < Ki ≤ 1 μM; Z = Ki > 1 μM)	X (X = Ki ≤ 0.1 μM)	X (X = Ki ≤ 0.1 μM)	X (X = Ki ≤ 0.1 μM)	0.1 to 1 µM	0.1 to 1 µM	Z (Z = MPC@4 > 20 μg/mL)	Z (Z = MPC@4 > 20 μg/mL)	Z (Z = MPC@4 > 20 μg/mL)	X (X = MPC@4 ≤ 5 μg/mL)	Y (Y = 5 μg/mL < MPC@4 ≤ 20 μg/mL)	Y (Y = 5 μg/mL < MPC@4 ≤ 20 μg/mL)	Z (Z = MPC@4 > 20 μg/mL)	Z (Z = MPC@4 > 20 μg/mL)	–
NCCn1cc(COc2ccc3c(c2C(=O)O)O[B-](O)(O)CC3)nn1 [Compound 23, Disodium; 8-[[1-(2-aminoethyl)triazol-4-yl]methoxy]-4,4-dihydroxy-5-oxa-4-boranuidabicyclo[4.4.0]deca-1(6),7,9-triene-7-carboxylate]	X (X = MPC@1 ≤ 5 μg/mL)	X (X = MPC@1 ≤ 5 μg/mL)	X (X = MPC@1 ≤ 5 μg/mL)	X (X = MPC@1 ≤ 5 μg/mL)	< 0.1 µM	X (key: X = Ki ≤ 0.1 μM; Y = 0.1 μM < Ki ≤ 1 μM; Z = Ki > 1 μM)	X (X = Ki ≤ 0.1 μM)	X (X = Ki ≤ 0.1 μM)	X (X = Ki ≤ 0.1 μM)	< 0.1 µM	< 0.1 µM	X (X = MPC@4 ≤ 5 μg/mL)	Y (Y = 5 μg/mL < MPC@4 ≤ 20 μg/mL)	X (X = MPC@4 ≤ 5 μg/mL)	X (X = MPC@4 ≤ 5 μg/mL)	X (X = MPC@4 ≤ 5 μg/mL)	X (X = MPC@4 ≤ 5 μg/mL)	X (X = MPC@4 ≤ 5 μg/mL)	Z (Z = MPC@4 > 20 μg/mL)	–
O=C([O-])c1c(-c2ccn[nH]2)ccc2c1O[B-](O)(O)CC2.[Na+].[Na+] [Compound 15, Disodium; 4,4-dihydroxy-8-(1H-pyrazol-5-yl)-5-oxa-4-boranuidabicyclo[4.4.0]deca-1(6),7,9-triene-7-carboxylate]	X (X = MPC@1 ≤ 5 μg/mL)	X (X = MPC@1 ≤ 5 μg/mL)	X (X = MPC@1 ≤ 5 μg/mL)	X (X = MPC@1 ≤ 5 μg/mL)	< 0.1 µM	X (key: X = Ki ≤ 0.1 μM; Y = 0.1 μM < Ki ≤ 1 μM; Z = Ki > 1 μM)	X (X = Ki ≤ 0.1 μM)	X (X = Ki ≤ 0.1 μM)	X (X = Ki ≤ 0.1 μM)	< 0.1 µM	< 0.1 µM	X (X = MPC@4 ≤ 5 μg/mL)	X (X = MPC@4 ≤ 5 μg/mL)	X (X = MPC@4 ≤ 5 μg/mL)	X (X = MPC@4 ≤ 5 μg/mL)	X (X = MPC@4 ≤ 5 μg/mL)	X (X = MPC@4 ≤ 5 μg/mL)	X (X = MPC@4 ≤ 5 μg/mL)	Z (Z = MPC@4 > 20 μg/mL)	–
C#CCOc1ccc2c(c1C(=O)O)OB(O)CC2 [Compound 25, 2-Hydroxy-7-prop-2-ynoxy-3,4-dihydro-1,2-benzoxaborinine-8-carboxylic acid]	X (X = MPC@1 ≤ 5 μg/mL)	X (X = MPC@1 ≤ 5 μg/mL)	X (X = MPC@1 ≤ 5 μg/mL)	X (X = MPC@1 ≤ 5 μg/mL)	< 0.1 µM	–	X (X = Ki ≤ 0.1 μM)	X (X = Ki ≤ 0.1 μM)	X (X = Ki ≤ 0.1 μM)	–	–	X (X = MPC@4 ≤ 5 μg/mL)	X (X = MPC@4 ≤ 5 μg/mL)	X (X = MPC@4 ≤ 5 μg/mL)	X (X = MPC@4 ≤ 5 μg/mL)	X (X = MPC@4 ≤ 5 μg/mL)	X (X = MPC@4 ≤ 5 μg/mL)	X (X = MPC@4 ≤ 5 μg/mL)	Z (Z = MPC@4 > 20 μg/mL)	Ki (P99, NCF), uM ([3]; purified P99, nitrocefin (NCF) as reporter substrate): X (X = Ki ≤ 0.1 μM); Ki ([7]; purified Pa-AmpC, nitrocefin (NCF) as reporter substrate, read-out: Ki (Pa-AmpC, NCF)): < 0.1 µM; Ki ([8]; purified SHV-12; nitrocefin (NCF) as reporter substrate; read-out: Ki (SHV-12, NCF)): < 0.1 µM
O=C(O)c1c(-n2ccnn2)ccc2c1O[B-](O)(O)CC2 [Compound 13, Disodium; 4,4-dihydroxy-8-(triazol-1-yl)-5-oxa-4-boranuidabicyclo[4.4.0]deca-1(6),7,9-triene-7-carboxylate]	X (X = MPC@1 ≤ 5 μg/mL)	X (X = MPC@1 ≤ 5 μg/mL)	X (X = MPC@1 ≤ 5 μg/mL)	X (X = MPC@1 ≤ 5 μg/mL)	< 0.1 µM	X (key: X = Ki ≤ 0.1 μM; Y = 0.1 μM < Ki ≤ 1 μM; Z = Ki > 1 μM)	X (X = Ki ≤ 0.1 μM)	X (X = Ki ≤ 0.1 μM)	X (X = Ki ≤ 0.1 μM)	< 0.1 µM	–	X (X = MPC@4 ≤ 5 μg/mL)	X (X = MPC@4 ≤ 5 μg/mL)	X (X = MPC@4 ≤ 5 μg/mL)	X (X = MPC@4 ≤ 5 μg/mL)	X (X = MPC@4 ≤ 5 μg/mL)	X (X = MPC@4 ≤ 5 μg/mL)	X (X = MPC@4 ≤ 5 μg/mL)	X (X = MPC@4 ≤ 5 μg/mL)	–
